# Experiments:
# [1] = target: catalytic domain 2 (CD2) of HDAC6 (Homo sapiens (Human), UniProt Q9UBN7); test: Cellular target engagement assay - NanoBRET; format: cell-based; conditions: NanoLuc-HDAC6(CD2) in HEK293T cells, 2 hours, read-out: IC50 (HDAC6(CD2) interaction)
# [2] = target: human full-length recombinant HDAC6 (Homo sapiens (Human), UniProt Q9UBN7); test: HDAC6 enzymatic activity assay (alternative protocol, Ac-Gly-Ala-Lys(Ac)-AMC); format: biochemical; conditions: 5 nM enzyme, read-out: HDAC6 biochem
# Sequence of human full-length recombinant HDAC6 (Q9UBN7 whole entry): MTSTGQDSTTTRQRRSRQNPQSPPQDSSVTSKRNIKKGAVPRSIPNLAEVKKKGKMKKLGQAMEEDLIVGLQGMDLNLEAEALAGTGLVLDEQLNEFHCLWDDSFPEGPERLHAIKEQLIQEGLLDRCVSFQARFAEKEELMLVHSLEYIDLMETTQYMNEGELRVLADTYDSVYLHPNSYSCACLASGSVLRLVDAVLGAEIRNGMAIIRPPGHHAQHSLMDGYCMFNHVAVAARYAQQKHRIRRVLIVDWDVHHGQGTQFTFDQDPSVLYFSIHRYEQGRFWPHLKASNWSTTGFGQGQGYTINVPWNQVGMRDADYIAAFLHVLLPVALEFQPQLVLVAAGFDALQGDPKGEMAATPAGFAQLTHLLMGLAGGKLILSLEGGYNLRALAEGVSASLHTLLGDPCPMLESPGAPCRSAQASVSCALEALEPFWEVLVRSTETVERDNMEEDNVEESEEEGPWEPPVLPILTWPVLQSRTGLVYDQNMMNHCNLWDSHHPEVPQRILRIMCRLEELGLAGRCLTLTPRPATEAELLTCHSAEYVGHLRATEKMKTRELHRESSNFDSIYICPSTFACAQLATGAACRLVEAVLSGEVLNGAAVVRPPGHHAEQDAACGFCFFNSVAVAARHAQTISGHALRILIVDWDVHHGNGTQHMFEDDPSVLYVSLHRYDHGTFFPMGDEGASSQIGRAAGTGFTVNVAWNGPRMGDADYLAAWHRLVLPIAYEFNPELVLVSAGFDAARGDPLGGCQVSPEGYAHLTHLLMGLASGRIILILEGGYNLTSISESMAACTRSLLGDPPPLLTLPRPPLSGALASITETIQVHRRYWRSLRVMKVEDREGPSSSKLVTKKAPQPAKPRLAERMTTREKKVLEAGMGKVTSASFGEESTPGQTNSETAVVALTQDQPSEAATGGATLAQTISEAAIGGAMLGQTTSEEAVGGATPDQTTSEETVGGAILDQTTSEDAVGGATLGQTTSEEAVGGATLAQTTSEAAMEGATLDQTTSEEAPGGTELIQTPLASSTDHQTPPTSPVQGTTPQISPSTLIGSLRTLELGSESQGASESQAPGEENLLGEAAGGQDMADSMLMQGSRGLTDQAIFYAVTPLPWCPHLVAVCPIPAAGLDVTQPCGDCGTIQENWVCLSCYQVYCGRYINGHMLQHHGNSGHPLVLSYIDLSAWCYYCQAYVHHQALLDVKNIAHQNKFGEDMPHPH
# Method: (§1) Inhibition of HDAC enzymes was performed in 384-well plate format using human full-length recombinant HDAC1 and HDAC6, isolated from a baculovirus expression system in Sf9 cells (BPS Bioscience). Reaction buffer for HDAC1 contained 50 mM Tris HCl pH 8.0, 137 mM NaCl, 2.7 mM KCl, 1 mM MgCl2, 0.1 mg/mL BSA, and reaction buffer for HDAC6 contained 50 mM Tris/HCl, pH 8.0, 137 mM NaCl, 2.7 mM KCl, 250 μM EDTA, 1 mM DTT, 0.1 mg/mL BSA. Compounds (dissolved in 100% DMSO) or DMSO (vehicle) were diluted in assay buffer at 3× final assay concentration and then added to assay plates. SAHA ([…]) was used as a positive control. 3× final assay concentration of recombinant enzymes (final assay concentration is 4 nM and 5 nM for HDAC1 and HDAC6, respectively) were preincubated for 10 minutes with test compounds at room temperature. Afterwards, 3× final assay concentration of an acetylated fluorogenic peptide (Ac-Gly-Ala-Lys(Ac))-AMC, Bachem; final assay concentration is 12 µM and 40 µM for HDAC1 and HDAC6, respectively) was added to assay plate, allowing deacetylase reactions to incubate for 60 minutes at room temperature. The developer reagent containing 5 μM SAHA and 50 μM trypsin was added to stop the deacetylase reaction and generate AMNC-fluorescence. 15 minutes after addition of developer reagent, endpoint measurements were taken using CLARIOstar (BMG Labtech) plate reader (excitation/emission: 360/450). Fluorescence signals were normalized for each plate using GraphPad Prism software: reaction HDAC-substrate in presence of DMSO was set to 100% while reaction HDAC-substrate in presence of 10 μM SAHA was set to 0%.
# [3] = target: human full-length recombinant HDAC1 (Homo sapiens (Human), UniProt Q13547); test: HDAC1 enzymatic activity assay (alternative protocol, Ac-Gly-Ala-Lys(Ac)-AMC); format: biochemical; conditions: 4 nM enzyme, read-out: HDAC1 biochem
# Sequence of human full-length recombinant HDAC1 (Q13547 whole entry): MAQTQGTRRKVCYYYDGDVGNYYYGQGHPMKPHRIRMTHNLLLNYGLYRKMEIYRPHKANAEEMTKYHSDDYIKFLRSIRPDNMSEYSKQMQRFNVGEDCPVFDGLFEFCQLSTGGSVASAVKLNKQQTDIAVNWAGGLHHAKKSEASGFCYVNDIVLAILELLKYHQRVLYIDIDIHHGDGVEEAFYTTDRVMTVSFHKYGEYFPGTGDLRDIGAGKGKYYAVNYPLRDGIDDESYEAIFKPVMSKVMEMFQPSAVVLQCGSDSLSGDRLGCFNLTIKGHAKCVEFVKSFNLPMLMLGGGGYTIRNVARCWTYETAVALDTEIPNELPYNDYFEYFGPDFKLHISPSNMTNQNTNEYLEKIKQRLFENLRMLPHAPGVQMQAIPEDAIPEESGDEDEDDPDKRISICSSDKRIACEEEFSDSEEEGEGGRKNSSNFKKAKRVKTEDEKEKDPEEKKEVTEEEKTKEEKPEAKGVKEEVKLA
# Method: as §1
# Sequence of catalytic domain 2 (CD2) of HDAC6 (Q9UBN7 482-800): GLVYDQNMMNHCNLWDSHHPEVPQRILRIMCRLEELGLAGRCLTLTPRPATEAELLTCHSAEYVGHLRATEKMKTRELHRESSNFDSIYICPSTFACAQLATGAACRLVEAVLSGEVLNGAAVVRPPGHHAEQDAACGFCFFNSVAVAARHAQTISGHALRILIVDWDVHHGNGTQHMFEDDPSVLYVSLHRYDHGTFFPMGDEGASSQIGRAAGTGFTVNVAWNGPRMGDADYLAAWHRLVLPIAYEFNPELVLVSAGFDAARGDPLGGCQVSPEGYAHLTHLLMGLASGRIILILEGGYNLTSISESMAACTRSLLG
Structure (SMILES),IC50 [1] [nM],IC50 [2] [nM],IC50 [3] [nM]
"Cn1ncc2c(SCC(=O)c3ccc(CNC(=O)Cc4ccccn4)s3)ncnc21 [Compound 55, N-((5-(2-((1-methyl-1H-pyrazolo[3,4-d]pyrimidin-4-yl)thio)acetyl)thiophen-2-yl)methyl)-2-(160yrrolid-2-yl)acetamide]",500 to 1000,≤ 100,> 10000
"Cn1ncc2c(SCC(=O)c3ccc(CNC(=O)Cc4cccnc4)s3)ncnc21 [Compound 56, N-((5-(2-((1-methyl-1H-pyrazolo[3,4-d]pyrimidin-4-yl)thio)acetyl)thiophen-2-yl)methyl)-2-(160yrrolid-3-yl)acetamide]",≤ 100,≤ 100,> 10000
"Cn1ncc2c(SCC(=O)c3ccc(CNC(=O)Cc4ccncc4)s3)ncnc21 [Compound 57, N-((5-(2-((1-methyl-1H-pyrazolo[3,4-d]pyrimidin-4-yl)thio)acetyl)thiophen-2-yl)methyl)-2-(160yrrolid-4-yl)acetamide]",100 to 500,≤ 100,> 10000
"COCC(=O)NCc1ccc(C(=O)CSc2ncnc3c2cnn3C)s1 [Compound 58, 2-methoxy-N-((5-(2-((1-methyl-1H-pyrazolo[3,4-d]pyrimidin-4-yl)thio)acetyl)thiophen-2-yl)methyl)acetamide]",1000 to 10000,≤ 100,> 10000
"Cn1ncc2c(SCC(=O)c3ccc(CNC(=O)CO)s3)ncnc21 [Compound 59, 2-hydroxy-N-((5-(2-((1-methyl-1H-pyrazolo[3,4-d]pyrimidin-4-yl)thio)acetyl)thiophen-2-yl)methyl)acetamide]",100 to 500,≤ 100,> 10000
Cn1ncc2c(SCC(=O)c3ccc(CNS(C)(=O)=O)s3)ncnc21 [Compound 87],100 to 500,≤ 100,> 10000
"Cn1ncc2c(SCC(=O)c3ccc(CNC(=O)Cc4ccccc4)s3)ncnc21 [Example 32, N-((5-(2-((1-methyl-1H-pyrazolo[3,4-d]pyrimidin-4-yl)thio)acetyl)thiophen-2-yl)methyl)-2-phenylacetamide]",–,≤ 100,> 10000
"COc1ccc2nc(C)nc(SCC(=O)c3ccc(CCN4CCC(O)C4=O)s3)c2c1 (stereo not drawn) [Example 115, 3-hydroxy-1-(2-(5-(2-((6-methoxy-2-methylquinazolin-4-yl)thio)acetyl)thiophen-2-yl)ethyl)pyrrolidin-2-one]",500 to 1000,–,–
"COc1ccc2nc(C)nc(SCC(=O)c3ccc([C@H](C)NC(=O)CO)s3)c2c1 [Example 128, (S)-2-hydroxy-N-(1-(5-(2-((6-methoxy-2-methylquinazolin-4-yl)thio)acetyl)thiophen-2-yl)ethyl)acetamide]",100 to 500,–,–
"C[C@H](NC(=O)CO)c1ccc(C(=O)CSc2nc(C(F)(F)F)nc3c2cnn3C)s1 [Example 130, (S)-2-hydroxy-N-(1-(5-(2-((1-methyl-6-(trifluoromethyl)-1H-pyrazolo[3,4-d]pyrimidin-4-yl)thio)acetyl)thiophen-2-yl)ethyl)acetamide]",100 to 500,–,–
"COc1ccc2nc(C)nc(SCC(=O)c3ccc(CN4CCOCC4=O)s3)c2c1 [Example 137, 4-((5-(2-((6-methoxy-2-methylquinazolin-4-yl)thio)acetyl)thiophen-2-yl)methyl)morpholin-3-one]",100 to 500,–,–
"COc1ccc2nc(C)nc(SCC(=O)c3ccc(CN4CCC(O)C4=O)s3)c2c1 (stereo not drawn) [Example 141, 3-hydroxy-1-((5-(2-((6-methoxy-2-methylquinazolin-4-yl)thio)acetyl)thiophen-2-yl)methyl)pyrrolidin-2-one]",100 to 500,–,–
"O=C(CSc1nc(C(F)(F)F)nc2ncccc12)c1ccc(CN2CCCC2=O)s1 [Example 157, 1-((5-(2-((2-(trifluoromethyl)pyrido[2,3-d]pyrimidin-4-yl)thio)acetyl)thiophen-2-yl)methyl)pyrrolidin-2-one]",≤ 100,–,–
"COc1cnc2nc(C)nc(SCC(=O)c3ccc(CN4CCOCC4=O)s3)c2c1 [Example 161, 4-((5-(2-((6-methoxy-2-methylpyrido[2,3-d]pyrimidin-4-yl)thio)acetyl)thiophen-2-yl)methyl)morpholin-3-one]",100 to 500,–,–
"O=C(CO)NCc1ccc(C(=O)CSc2nccc3cccnc23)s1 [Example 165, N-((5-(2-((1,7-naphthyridin-8-yl)thio)acetyl)thiophen-2-yl)methyl)-2-hydroxyacetamide]",100 to 500,–,–
"O=C(CO)NCc1ccc(C(=O)CSc2nc3cc(Cl)cnc3[nH]2)s1 [Example 166, N-((5-(2-((6-chloro-3H-imidazo[4,5-b]pyridin-2-yl)thio)acetyl)thiophen-2-yl)methyl)-2-hydroxyacetamide]",1000 to 10000,–,–

Structure (SMILES),IC50 [1] [nM],IC50 [2] [nM],IC50 [3] [nM]
"COc1ccc2oc(SCC(=O)c3ccc(CNC(=O)CO)s3)nc2c1 [Example 167, 2-hydroxy-N-((5-(2-((5-methoxybenzo[d]oxazol-2-yl)thio)acetyl)thiophen-2-yl)methyl)acetamide]",1000 to 10000,–,–
"COc1cccc2oc(SCC(=O)c3ccc(CNC(=O)CO)s3)nc12 [Example 168, 2-hydroxy-N-((5-(2-((4-methoxybenzo[d]oxazol-2-yl)thio)acetyl)thiophen-2-yl)methyl)acetamide]",1000 to 10000,–,–
"Cn1c(SCC(=O)c2ccc(CNC(=O)CO)s2)nc2ccccc21 [Example 169, 2-hydroxy-N-((5-(2-((1-methyl-1H-benzo[d]imidazol-2-yl)thio)acetyl)thiophen-2-yl)methyl)acetamide]",1000 to 10000,–,–
"Cc1ccc2oc(SCC(=O)c3ccc(CNC(=O)CO)s3)nc2c1 [Example 170, 2-hydroxy-N-((5-(2-((5-methylbenzo[d]oxazol-2-yl)thio)acetyl)thiophen-2-yl)methyl)acetamide]",1000 to 10000,–,–
"COc1ccc2nc(SCC(=O)c3ccc(CNC(=O)CO)s3)[nH]c2n1 [Example 173, 2-hydroxy-N-((5-(2-((5-methoxy-3H-imidazo[4,5-b]pyridin-2-yl)thio)acetyl)thiophen-2-yl)methyl)acetamide]",1000 to 10000,–,–
"O=C(CO)NCc1ccc(C(=O)CSc2nc3cc(Cl)ccc3o2)s1 [Example 174, N-((5-(2-((5-chlorobenzo[d]oxazol-2-yl)thio)acetyl)thiophen-2-yl)methyl)-2-hydroxyacetamide]",1000 to 10000,–,–
"O=C(CO)NCc1ccc(C(=O)CSc2nccn3ccnc23)s1 [Example 176, 2-hydroxy-N-((5-(2-(imidazo[1,2-a]pyrazin-8-ylthio)acetyl)thiophen-2-yl)methyl)acetamide]",1000 to 10000,–,–
"O=C(CO)NCc1ccc(C(=O)CSc2nccc3ncccc23)s1 [Example 179, N-((5-(2-((1,6-naphthyridin-5-yl)thio)acetyl)thiophen-2-yl)methyl)-2-hydroxyacetamide]",100 to 500,–,–
"O=C(CO)NCc1ccc(C(=O)CSc2nccc3ccncc23)s1 [Example 180, N-((5-(2-((2,7-naphthyridin-1-yl)thio)acetyl)thiophen-2-yl)methyl)-2-hydroxyacetamide]",100 to 500,–,–
"O=C(CO)NCc1ccc(C(=O)CSc2nccn3cncc23)s1 [Example 181, 2-hydroxy-N-((5-(2-(imidazo[1,5-a]pyrazin-8-ylthio)acetyl)thiophen-2-yl)methyl)acetamide]",100 to 500,–,–
"O=C(CO)NCc1ccc(C(=O)CSc2nccn3nccc23)s1 [Example 182, 2-hydroxy-N-((5-(2-(pyrazolo[1,5-a]pyrazin-4-ylthio)acetyl)thiophen-2-yl)methyl)acetamide]",1000 to 10000,–,–
"COc1ccc2nc(C)nc(SCC(=O)c3ccc(CNC(=O)N(C)C)s3)c2c1 [Example 189, 3-((5-(2-((6-methoxy-2-methylquinazolin-4-yl)thio)acetyl)thiophen-1-yl)methyl)-1,1-dimethylurea]",100 to 500,–,–
"COc1cnc2nc(C)nc(SCC(=O)c3ccc(CNC(=O)OC(C)(C)C)s3)c2c1 [Example 190, tert-butyl ((5-(2-((6-methoxy-2-methylpyrido[2,3-d]pyrimidin-4-yl)thio)acetyl)thiophen-2-yl)methyl)carbamate]",100 to 500,–,–
"CC(C)(C)C(=O)NCc1ccc(C(=O)CSc2nc(C(F)(F)F)cc3ccccc23)s1 [Example 191, N-((5-(2-((3-(trifluoromethyl)isoquinolin-1-yl)thio)acetyl)thiophen-2-yl)methyl)pivalamide]",–,1000 to 10000,> 10000
"Cn1ncc2c(SCC(=O)c3nnc(CNC(=O)C(C)(C)C)s3)ncnc21 [Example 192, N-((5-(2-(1-methyl-1H-pyrazolo[3,4-d]pyrimidin-4-ylthio)acetyl)-1,3,4-thiadiazol-2-yl)methyl)pivalamide]",–,100 to 500,500 to 1000
CC(C)(C)C(=O)NCc1ccc(C(=O)CSc2nnc(C(F)(F)F)c3ccccc23)s1 [Example 195],–,≤ 100,> 10000

# Reference: patent publication US20250051319A1 (AUGUSTINE THERAPEUTICS, priority 2021, published 2025)
